What all share (assay type): in vivo
In test [1] the test system is homozygous Col4a3 ko/ko mice. The test can be described thus: Albumin levels in urine (Albumin Mouse ELISA) in Col4a3 Alport mouse model. The following applies: setanaxib 60 mg/kg daily oral gavage, Ramipril 10 mg/kg via drinking water; for Albumin levels in urine vs vehicle: age 6 weeks (2 weeks of treatment). From the text: Mice homozygous for the Col4a3 ko/ko targeted mutation are a model for autosomal-recessive Alport syndrome (Cosgrove et al. Kidney Int. 2007, 71(7), p. 615-618). Animals bred on a 129/SvJ background develop glomerulonephritis and die at about 8.5 weeks of age (Jackson Laboratory strain: #002908). Gross et al. Kidney Int. 2003, 63(2), p. 438-446) reported a mean survival of 10 weeks. Since homozygous Col4a3 ko/ko mice reflect key features of Alport syndrome, this mouse model is useful to test potential drug candidates. A number of 40 homozygous Col4a3 ko/ko mice, allocated to 4 groups (vehicle, setanaxib, Ramipril, and setanaxib+Ramipril combination) with n=10 animals each, were used for the study. Starting at an age of 4 weeks, animals were treated with vehicle and/or compound daily per oral gavage for 4 weeks. The reference compound Ramipril was administered via drinking water, prepared on a weekly basis, but changed at the latest after 4 days. Additionally, one wild-type control group (Col4A3+/+) without any treatment was enclosed in the study with n=6 animals. […] Albumin and Creatinine levels were evaluated by ELISA in urine samples of 8 animals per treatment group. Treatment 40 homozygous Col4a3 ko/ko mice, allocated to 4 groups with n=10 animals each, were used for this study. Animals were treated with vehicle or compound daily per oral gavage for 4 weeks starting at an age of 4 weeks. The reference compound Ramipril was administered via drinking water, prepared on a weekly basis, but changed latest after 4 days. Additionally, one wild-type control group without any treatment was enclosed in the study with n=6 animals. The treatment groups are outlined in the table below: […] In case no urine was produced during the fixation process, massage of the abdomen was allowed. Urine was collected in Eppendorf Tubes, spun at 800×g at room temperature for 10 minutes and supernatant was transferred into a fresh tube and frozen at -20° C. until use. Creatinine and Albumin levels in urine supernatants, collected from 8 animals each group […] timepoints, at baseline, 6 and 8 weeks of age (n=96), were analyzed. Albumin levels in urine supernatants, collected from each animal per group at 3 time points (total n=96) were analyzed using an Albumin Mouse ELISA Kit (ab108792; Abcam) according to manufacturer protocol. Briefly, urine samples were centrifuged at 800×g for 10 minutes and diluted into Diluent N. 50 μL of albumin standard or sample was added per well and incubated for 2 hours. After a washing step, 50 μL of biotinylated albumin antibody was added to each well and incubated for 1 hour. […] Albumin levels were determined by reading the absorbance at 450 nm immediately after adding the stop solution.
(An ELISA detects its analyte on a solid surface through an enzyme-linked reagent.)

For test [2], the system named is homozygous Col4a3 ko/ko mice. The test can be described thus: Blood Urea Nitrogen (BUN) colorimetric detection in plasma, Col4a3 Alport mouse model. The following applies: end of study (4 weeks of treatment); first experiment. The source says:
(§1) Mice homozygous for the Col4a3 ko/ko targeted mutation are a model for autosomal-recessive Alport syndrome (Cosgrove et al. Kidney Int. 2007, 71(7), p. 615-618). Animals bred on a 129/SvJ background develop glomerulonephritis and die at about 8.5 weeks of age (Jackson Laboratory strain: #002908). Gross et al. Kidney Int. 2003, 63(2), p. 438-446) reported a mean survival of 10 weeks. Since homozygous Col4a3 ko/ko mice reflect key features of Alport syndrome, this mouse model is useful to test potential drug candidates. A number of 40 homozygous Col4a3 ko/ko mice, allocated to 4 groups (vehicle, setanaxib, Ramipril, and setanaxib+Ramipril combination) with n=10 animals each, were used for the study. Starting at an age of 4 weeks, animals were treated with vehicle and/or compound daily per oral gavage for 4 weeks. The reference compound Ramipril was administered via drinking water, prepared on a weekly basis, but changed at the latest after 4 days. Additionally, one wild-type control group (Col4A3+/+) without any treatment was enclosed in the study with n=6 animals. At study end the animals were euthanized by i.p. injection of pentobarbital and terminal blood was collected by heart puncture in EDTA coated tubes. […] BUN plasma levels of all animals at the end of the study were analyzed. […]

The subject of test [3] is homozygous Col4a3 ko/ko mice. As to the kind of experiment: Albumin/creatinine ratio in urine in Col4a3 Alport mouse model. The following applies: Ramipril 10 mg/kg. The source says:
Mice homozygous for the Col4a3 ko/ko targeted mutation are a model for autosomal-recessive Alport syndrome (Cosgrove et al. Kidney Int. 2007, 71(7), p. 615-618). Animals bred on a 129/SvJ background develop glomerulonephritis and die at about 8.5 weeks of age (Jackson Laboratory strain: #002908). Gross et al. Kidney Int. 2003, 63(2), p. 438-446) reported a mean survival of 10 weeks. Since homozygous Col4a3 ko/ko mice reflect key features of Alport syndrome, this mouse model is useful to test potential drug candidates. A number of 40 homozygous Col4a3 ko/ko mice, allocated to 4 groups (vehicle, setanaxib, Ramipril, and setanaxib+Ramipril combination) with n=10 animals each, were used for the study. Starting at an age of 4 weeks, animals were treated with vehicle and/or compound daily per oral gavage for 4 weeks. The reference compound Ramipril was administered via drinking water, prepared on a weekly basis, but changed at the latest after 4 days. Additionally, one wild-type control group (Col4A3+/+) without any treatment was enclosed in the study with n=6 animals. […] Albumin and Creatinine levels were evaluated by ELISA in urine samples of 8 animals per treatment group. Treatment 40 homozygous Col4a3 ko/ko mice, allocated to 4 groups with n=10 animals each, were used for this study. Animals were treated with vehicle or compound daily per oral gavage for 4 weeks starting at an age of 4 weeks. The reference compound Ramipril was administered via drinking water, prepared on a weekly basis, but changed latest after 4 days. Additionally, one wild-type control group without any treatment was enclosed in the study with n=6 animals. The treatment groups are outlined in the table below: […] In case no urine was produced during the fixation process, massage of the abdomen was allowed. Urine was collected in Eppendorf Tubes, spun at 800×g at room temperature for 10 minutes and supernatant was transferred into a fresh tube and frozen at -20° C. until use. Creatinine and Albumin levels in urine supernatants, collected from 8 animals each group […] timepoints, at baseline, 6 and 8 weeks of age (n=96), were analyzed. Creatinine levels in urine samples of all animals (n=8 per group, 4 groups, 3 time points, total n=96) were analyzed. For that purpose, an enzymatic assay from Diazyme® (DZ072B) was used. The analysis was performed according to manufacturer protocol with minor modifications introduced for use in 96 well plates and readout in standard plate photometer (Cytation 5, Biotek). Albumin levels in urine supernatants, collected from each animal per group at 3 time points (total n=96) were analyzed using an Albumin Mouse ELISA Kit (ab108792; Abcam) according to manufacturer protocol.

Test [4] relates to homozygous Col4a3 ko/ko mice. The test can be described thus: Quantitative detection of mouse Cystatin C in plasma (ELISA), Col4a3 Alport mouse model. The following applies: end of study (4 weeks of treatment); first experiment.
From the text: as §1, with “Cystatin C” for “BUN”

The mark [5] stands for this setting: age 8 weeks (4 weeks of treatment), setanaxib 60 mg/kg.

As to `CCOC(=O)[C@H](CCc1ccccc1)N[C@@H](C)C(=O)N1[C@H](C(=O)O)C[C@@H]2CCC[C@@H]21` [Ramipril, (2S,3aS,6aS)-1-[(2S)-2-[[(2S)-1-ethoxy-1-oxo-4-phenylbutan-2-yl]amino]propanoyl]-3,3a, 4,5,6,6a-hexahydro-2H-cyclopenta[b]pyrrole-2-carboxylic acid], the “Albumin levels in urine vs vehicle” value in test [1] (first experiment) was “slightly reduced the amount of albumin in the urine”; in test [1] (second experiment), “reduced to a greater extent”. In addition, in test [2], the “BUN plasma levels vs vehicle” value is “significant decrease”. The “Albumin to Creatinine ratio in urine vs vehicle” value in test [3] (age 6 weeks, first experiment, setanaxib 60 mg/kg) is recorded as “reduced the Albumin to Creatinine ratio, but without reaching significance”; in test [3] (age 6 weeks, second experiment), “the reduction did reach significance”; in test [3] (setting [5]), “significantly decreased”. In addition, the “Cystatin C plasma levels vs vehicle” value in test [4] is “significant decrease”.

On to `CN(C)c1cccc(-c2c3c(=O)n(-c4ccccc4Cl)[nH]c3cc(=O)n2C)c1` [setanaxib, 2-(2-chlorophenyl)-4-[3-(dimethylamino)phenyl]-5-methyl-1H-pyrazolo[4,3-c]pyridine-3,6(2H,5H)-dione], for which, in test [1] (both experiments / experiment not specified), the “Albumin levels in urine vs vehicle” value is given as “trend towards increased Albumin levels”. Moreover, the “Albumin levels in urine vs control (vehicle)” value in test [1] (age 8 weeks (4 weeks of treatment)) is given as “decrease in average Albumin levels”. Also, the “BUN plasma levels vs vehicle” value in test [2] is on record as “significant decrease”. In addition, the “Albumin to Creatinine ratio in urine vs vehicle” value was “trend in both the first and second experiment towards an increase” in test [3] (age 6 weeks, both first and second experiment, setanaxib 60 mg/kg); “average decrease” in test [3] (setting [5]). Besides, in test [4], the “Cystatin C plasma levels vs vehicle” value was “significant decrease”.

These data come from patent US20260021079A1, “NOX INHIBITORS FOR USE IN THE TREATMENT OF ALPORT SYNDROME” (CALLIDITAS THERAPEUTICS SUISSE SA, priority 2022, published 2026).
